Source: US8945596B2, “Antimicrobial composition” (Conopco, Inc., priority 2008, dated 2015)

Key:
Type in all cases: cell-based
Salmonella = assay: Viable bacteria remaining after 15 seconds of contact with the actives; settings: 15 seconds contact, culture added 7.63
Procedure: (§1) About 10^7 bacterial cells (E. coli ATCC 10536) were taken in a test tube and contacted with various compositions for a period of 15 seconds. Bacteria were taken out after 15 seconds of contact and presence of viable cells was determined by serial dilution and plating on agar plates. The data is presented in log (Viable E. Coli) which is the log10 of the number of viable E. Coli remaining after 15 seconds of contact. Thus if 10^4 remained, log (Viable E. Coli) is 4.
(§2) The combination of thymol (0.2%) and terpineol (0.5%) was tested for its efficacy in inhibiting growth of various other bacteria after they are contacted with this combination for about 15 seconds. Similar experiments were carried out with another well known antibacterial active TCC (trichloro carbanilide). The experiments were carried out similar to those of Examples 1 to 3 and the data on the viable bacteria remaining after contact with the actives for 15 seconds is summarized in Table 3

Entereobacter = assay: as above; settings: 15 seconds contact, culture added 6.87
Procedure: as §1, §2

Klebsiella = assay: as above; settings: 15 seconds contact, culture added 7.35
Procedure: as §1, §2

Vibrio cholerae = assay: as above; settings: 15 seconds contact, culture added 7.58
Procedure: as §1, §2

E. coli ATCC 10536 = assay: Bacterial kill in test tube after 15 seconds of contact, serial dilution and plating; settings: log10 of viable E. coli remaining after 15 seconds of contact; about 10^7 cells initially; water as carrier
Procedure: Compositions comprising each individual active and a combination were prepared with water as a carrier (details given in Table 1 below). Terpineol and thymol were obtained from […] aromas, India. […] The data is presented in log (Viable E. Coli) which is the log10 of the number of viable E. […] Eucalyptol and linalool were obtained from Fluka. […] The data in log (Viable E.

[1] = tested on: Streptococcus mutans ATCC 25175; assay: Oxoplate oxygen depletion growth assay; settings: no oxygen depletion over 18 hours
Procedure: (§3) The anti-bacterial activity of the composition of the invention against a commonly found Gram positive oral bacteria viz. Streptococcus mutans ATCC 25175 and a Gram negative oral bacteria Neisseria subflava ATCC 19243) was determined. This was investigated using Oxoplates. Oxoplates monitor oxygen depletion within the reaction system (containing bacteria, broth and actives).
(§4) A Gram positive (Streptococcus mutans ATCC 25175) and a Gram negative (Neisseria subflava ATCC 19243) bacterium were selected for testing the active solutions. Both bacteria were grown on BHIS agar plates for 24 hours at 37° C./15% CO2, they were then suspended in PBS to a McFarland standard of 2 (˜6×10^8 cells).
(§5) Each active was dissolved in 50% ethanol solutions for testing. All solutions were made at 10 times concentrated to allow for dilution in the plate. Reduced concentrations were used for N. subflava due to the greater sensitivity of this organism to biocides,
(§6) The following components were placed into the wells of the Oxoplates, • 170 µl BHI broth • 20 µl test solution • 10 µl bacteria
(§7) The broth was placed into the Oxoplate first, followed by the test solution, and then the bacterium. Water or 50% ethanol controls were also used in each plate. All solutions were tested in replicates of four. The plates were placed into the fluorescent plate reader, incubated at 37° C. and measured every 15 minutes for 18 hours. The sensors on the bottom of the wells were measured at 2 wavelengths, • Indicator (650/[…]) • Reference (590/540 nm).
(§8) The oxygen concentration was calculated using these values and a calibration performed for maximum and minimum oxygen concentration. A graph was then plotted of the oxygen depletion curves over the 18 hour period, which was used to determine the level at which the bacteria start to deplete the oxygen.

[2] = tested on: Neisseria subflava ATCC 19243; assay: Oxoplate oxygen depletion growth assay; settings: no oxygen depletion over 18 hours
Procedure: as §3, §4, §5, §6, §7, §8

Question: Which viable bacteria remaining (Salmonella) does the source give for `O=C(Nc1ccc(Cl)cc1)Nc1ccc(Cl)c(Cl)c1` [0.2% TCC, trichloro carbanilide] here?
Answer: The viable bacteria remaining was 7.33 Log (CFU/ml).

Question: What about the viable bacteria remaining (Entereobacter) of the same compound?
Answer: The viable bacteria remaining was 6.87 Log (CFU/ml).

Question: What about the viable bacteria remaining (Klebsiella) of the same compound?
Answer: Its viable bacteria remaining is 7.28 Log (CFU/ml).

Question: What about the viable bacteria remaining (Vibrio cholerae) of the same compound?
Answer: The viable bacteria remaining was 7.20 Log (CFU/ml).

Question: `Cc1ccc(C(C)C)c(O)c1` [Example 1, Thymol] was tested. Which “Log (Viable E. coli)” value (E. coli ATCC 10536) did it give?
Answer: The value was 3.1.

Question: `Cc1ccc(C(C)C)c(O)c1` [Example 25, Thymol] was tested. Which “Concentration of active (wt %) at no growth” value ([1]; thymol concentration) did it give?
Answer: The value was “Thymol (0.08%) wt %”.

Question: For `Cc1ccc(C(C)C)c(O)c1` [Example 28, Thymol], which “Concentration of active (wt %) at no growth” value ([2]; thymol concentration) is on record?
Answer: The value was “Thymol (0.02%) wt %”.

Question: Terpineol [Example 2] was tested. Which “Log (Viable E. coli)” value (E. coli ATCC 10536) did it give?
Answer: The value was 6.3.

Question: Which “Concentration of active (wt %) at no growth” value ([1]; terpineol concentration) does the source give for Terpineol [Example 24] here?
Answer: The value was “Terpineol (0.4%) wt %”.

Question: For Terpineol [Example 27], which “Concentration of active (wt %) at no growth” value ([2]; terpineol concentration) is on record?
Answer: The value was “Terpineol (0.08%) wt %”.
